Laboratory results published in a melting point compilation (Tetko et al.).

melting point	SMILES
138 °C	O=C(Nc1ccccc1)OCc1c([N+](=O)[O-])cccc1[N+](=O)[O-]
134 to 136 °C	O=C1NC(=O)C2CC(c3ccccc3)CCC12 (centres undefined)
167 °C	Cc1cc(-c2onc(C)c2C(=O)O)no1
91.5 °C	Cc1c(-c2ccccc2)[nH]c2ccccc12
260 °C	O=c1c2ccccc2nc2n1CCc1c-2[nH]c2ccccc12
166 to 167 °C	C1=C(c2ccccc2)Cc2ccccc21
144 to 149 °C	COc1cc(O)c(C(C)=O)c(O)c1
68 to 68.5 °C	CN(C)c1ccc(CCC2CCc3ccccc3N2)cc1 (centres undefined)
171 °C	NNC(=O)c1ccncc1
59 to 61 °C	CCOC(=O)c1cc2cc(OC)ccc2o1
66 °C	COC(OC)(C(=O)c1ccccc1)c1ccccc1
226 °C	C=C1C(=O)C23C(OC(C)=O)CC4C(C)(C)CCCC4(COC(C)=O)C2C(OC(C)=O)CC1C3OC(C)=O (centres undefined)
180 °C	CC(C)(NC(=O)C(Br)C(C)(C)C)c1ccccc1 (centres undefined)
147 to 148 °C	O=Cc1ccc(-c2cncnc2)cc1
108 °C	CC(=O)Oc1nc(C2CCCCC2)nn1-c1ccccc1
175 to 176 °C	CCOC(=O)c1cnc2n(c1=O)CCS2
-135 °C	C1CC12CC2
149 to 153 °C	Cc1cc(C(=O)O)n(C(C)(C)C)n1
-28.3 °C	CCCCCCC(CCCCCC)CCCCCC
188 °C	CN(C)c1ccc(C(Br)=NNc2ccc([N+](=O)[O-])cc2)cc1
192 to 194 °C	CN1CCc2c(sc(N)c2C#N)C1
250 °C	N#Cc1cnc(Br)nc1N
73 °C	Cc1cc(N)c2ncccc2c1
145 °C	O=C(CCCCC(=O)NCCCC(=O)ON1C(=O)CCC1=O)NCCCC(=O)ON1C(=O)CCC1=O

melting point	SMILES
171 to 173 °C	COc1cc(I)c(OC)cc1I
96 °C	COC1=C(OC)C(C(O)CBr)OC1=O (centres undefined)
224 to 229 °C	COc1ccc(Br)cc1C=CC(=O)O
131 to 133 °C	COc1nn(-c2ccccc2)cc1/C=C/C=O
120 °C	O=C1CN(C(=O)OCc2ccccc2)CCN1
-61 °C	C#CC(C)(C)Cl
87 to 89 °C	OCc1ccc(-n2ccnc2)cc1
31 °C	Cc1ccc2cc[nH]c2c1
34 to 36 °C	FC(F)(F)c1cc(N=C=S)ccc1Cl
178 °C	NC(=O)/C(=C\c1ccc(F)cc1)c1nc2ccccc2s1
198 °C	CC1=CCC(C)C1=NNc1ccc([N+](=O)[O-])cc1[N+](=O)[O-] (centres undefined)
44 to 46 °C	Cc1nn(C)c(Cl)c1N=Nc1ccccc1
178 °C	COc1ccccc1C=N/N=c1/sc(C(C)=O)nn1-c1ccccc1[N+](=O)[O-]
228 °C	c1ccc2cc(P(c3ccc4ccccc4c3)c3ccc4ccccc4c3)ccc2c1
182 to 185 °C	NC(CS(=O)(=O)Cc1ccc(F)cc1)=NO
92 °C	Oc1ccc(Cl)c2c1CCC2
68 to 71 °C	CSc1ccc(Oc2cccc(F)c2C#N)cc1
-15 °C	NCCCN1CCOCC1
280 to 289 °C	Oc1cc(C(F)(F)F)nc2ccc(Cl)cc12
-9 °C	CC(C)CCOC(=O)C(=O)OCCC(C)C
218 to 220 °C	N[C@H]1CCC[C@H]1C(=O)O (relative stereo)
76 to 80 °C	O=C(Cl)c1ccc(-c2ccccc2)s1
194 °C	O=C(O)c1cccc(Cl)n1
88 to 90 °C	N#CCCn1cccc(C(F)(F)F)c1=O

melting point	SMILES
46 °C	O=Cc1cc(Br)cc(OC(F)(F)F)c1O
138 °C	CC(=O)CCc1cc2c(cc1[N+](=O)[O-])CCC(C)N2C(=O)c1ccccc1 (centres undefined)
102 °C	Cc1nn(C)c(C)c1N
120 °C	C=C1C2CCC3C(CCC4C5(C)CCCC43C3OCCN3C5)(C2)C1O (centres undefined)
212 °C	O=C1N[C@H]2[C@H](CS[C@H]2CCCCC(=O)ON2C(=O)CCC2=O)N1
146 to 148 °C	O=P(O)(O)CCN(CP(c1ccccc1)c1ccccc1)CP(c1ccccc1)c1ccccc1
127 °C	Cc1cc2c(o1)-c1c(oc3ccc(Br)cc13)CCC2(C)c1ccccc1 (centres undefined)
168 to 169 °C	Nc1nnc(Br)s1
45 °C	O=S(=O)(Cl)c1c(Cl)cc(Br)cc1Cl
193 °C	O=C1C=C(Nc2ccccc2)C(=O)c2ccccc21
37 to 39 °C	c1ccc(-c2cnco2)cc1
145 to 148 °C	Oc1ccc(C(F)(F)F)cn1
300 °C	O=c1[nH]c2ccccc2[nH]c1=O
88 to 93 °C	Cc1csc(=S)n1O
251 °C	NNC(=O)c1ccc(O)c(N)c1
82 to 84 °C	Cc1nc(-c2ccc(C(F)(F)F)cc2)sc1C(=O)CBr
110 °C	O=C(O)CSCCSCC(=O)O
111 °C	COC(=O)c1ccc(OC)c([N+](=O)[O-])c1
181 to 183 °C	CCOC(=O)c1cc2c(N)c(C(=O)OCC)sc2nc1C(F)(F)F
177 °C	Cc1c(NC(=O)C(F)(F)C(F)(F)C(F)(F)C(F)(F)C(F)(F)C(F)(F)C(F)(F)C(F)(F)F)c(=O)n(-c2ccccc2)n1C
244 °C	O=C(NCCNC(=O)c1ccccc1)c1ccccc1
-83 °C	CCCN
183 to 185 °C	CCOC(=O)c1sc2ncccc2c1N
107 to 111 °C	C[C@@](O)(CC(=O)O)C(=O)O

melting point	SMILES
79.6 to 80 °C	O=[N+]([O-])c1ccc(CN2CCOCC2)cc1
102 °C	N#Cc1c(F)cc(Cl)cc1F
106 °C	Cc1c(Br)sc2ccc(Cl)cc12
172 to 175 °C	c1ccc(-c2cc(-c3ccccc3)cc(-c3ccccc3)c2)cc1
91 to 92 °C	CC(O)(c1cc2ccccc2o1)c1cc2ccccc2o1
108 °C	CN(C)CCOc1ccc(C(=C(CCCl)c2ccccc2)c2ccccc2)cc1
163 °C	NC(N)=Nc1nc(CSCCC(N)=NS(N)(=O)=O)cs1
118 to 120 °C	COc1cc(OC(C)=O)c2c(=O)c(O[C@@H]3O[C@H](COC(C)=O)[C@H](OC(C)=O)[C@H](OC(C)=O)[C@@H]3O[C@@H]3O[C@H](C)[C@H](OC(C)=O)[C@H](OC(C)=O)[C@@H]3OC(C)=O)c(-c3ccc(OC(C)=O)cc3)oc2c1
139 °C	CCOC(=O)C=Cc1ccc([N+](=O)[O-])cc1
149 °C	O=C(Oc1ccc(Cl)cc1)c1ccc(Oc2ccc(C(=O)Oc3ccc(Cl)cc3)cc2)cc1
125 °C	Cc1ccc(C(=O)O)c(C)c1
124 °C	CC(C)Oc1cccc(OC(C)C)c1-c1ccccc1P(C1CCCCC1)C1CCCCC1
90 °C	O=[N+]([O-])c1cc(C(F)F)c(Nc2ncc(C(F)(F)F)cc2Cl)c([N+](=O)[O-])c1
110 °C	COC(=O)c1ccc(-c2ccccc2)nc1
63 to 65 °C	CC(CSc1ccc(Cl)cc1)C(=O)O (centres undefined)
181 °C	CCNc1c(C=O)c(=O)oc2ccccc12
195 °C	O=P(O)(O)OC1C(O)C(O)C(O)C(O)C1O (centres undefined)
130 °C	Fc1ccc(C2CCNCC2COc2ccc3c(c2)OCO3)cc1 (centres undefined)
152 °C	O=C(O)CN1CSC(=S)N(Cc2ccccc2)C1
95 to 97 °C	Cc1occc1C(=O)CC#N
221 to 223 °C	Cn1ccc2cc(C(=O)O)ccc21
164 to 165 °C	O=C(O)c1cccnc1F
219 to 221 °C	O=C1Cc2cc(Br)ccc2N1
133 °C	Cc1ccc(C(=O)COc2c(C(=O)c3ccc(Cl)c(C)c3Cl)c(C)nn2C)cc1

melting point	SMILES
125 °C	O=Cc1cccc2cccc([N+](=O)[O-])c12
169 °C	O=C(O)/C(=C/c1ccccc1F)c1ccccc1
45 to 47 °C	COc1ccc(Oc2ccc(C(F)(F)F)cc2[N+](=O)[O-])cc1
-40 °C	CCCCCCOCCOCCO
65 °C	CCO[Si](c1ccccc1)(c1ccccc1)c1ccccc1
82 to 83 °C	Cc1nc(N)ccc1Br
180 to 182 °C	O=C1CCC(c2ccccc2)=NN1c1n[nH]c(=S)n1-c1ccccc1
155 °C	CC12CCC(C(=O)C(Br)(Br)C1=O)C2(C)C (centres undefined)
345 °C	COc1cccc2c1C(=O)c1c(O)c3c(c(O)c1C2=O)CC(O)(C(=O)CO)CC3OC1CC(N)C(O)C(C)O1 (centres undefined)
155 °C	O=C(Nc1cccc([N+](=O)[O-])c1)c1ccccc1
282 °C	CC1C(=O)C23C(O)CC4C(C)(C)CCC(O)C4(C)C2C(O)CC1C3O (centres undefined)
213 °C	CC12CCC(O)CC1CCC1C2C(=O)CC2(C)C1CCC2(O)C(=O)CO (centres undefined)
46 °C	CCCCCCOc1ccc(O)cc1
68 °C	COc1ccc(S(=O)(=O)Cl)cc1OC
328 to 330 °C	CN(C)c1ccc(-c2c(C#N)c(N)n(N)c(=O)c2C#N)cc1
182 °C	Cc1cc2cc3ccccc3cc2cc(C)c1=O
69 °C	CN(C)c1ccc(CO)cc1
181 to 183 °C	NNC(=O)c1sc2ccccc2c1Cl
168 to 169 °C	O=C(O)CSc1nnc(S)s1
182 °C	Nc1ccc(S(=O)(=O)NC(=O)c2ccccc2)cc1
173 °C	COc1cc(/C=C/C(=O)O)ccc1O

SMILES	melting point
O=C(O)C1(c2ccc(Cl)cc2)CCC1	80 to 90 °C
Oc1cc(Cl)cc(Cl)c1O	82.5 °C
CNC(=O)Oc1cc(C)cc(C)c1	99 °C
COC(=O)c1ccc(CCl)cc1	40 °C
CC(N)P(=O)(O)O (racemic)	283 to 284 °C
C[C@]12CC[C@H]3[C@@H](CC=C4C[C@@H](O)CC[C@@]43C)[C@@H]1CC[C@@H]2O	178 to 182 °C
CCC1CN2CCC1CC2C(O)c1ccnc2ccc(OCCC(C)C)cc12 (centres undefined)	152 °C
